Experimental data as given in article doi:10.1101/2025.11.21.689733v1, “Identification and Characterization of a Small Molecule Ligand for the Huntingtin-HAP40 Complex” (biorxiv, 2025).
Blank lines part the entries; values can stand above or below the compound they belong to.

Assays:
Format in all cases: binding
HTTQ54-HAP40 = molecular target: T1, HTTQ54-HAP40 (Homo sapiens, UniProt P23610+P42858, P42858:INS38QQQQQQQQQQQQQQQQQQQQQQQQQQQQQQQQQ); assay: SPR
T1 construct: gene HTT; full-length HTT with polyQ tract of 54 residues in complex with HAP40; C-terminal Avi-tag biotinylated; Sf9 baculovirus
Description: SPR on HTTQ54-HAP40 | binding affinity was indistinguishable between wild-type (Q23) HTT-HAP40 and its expanded form (Q54)

HTTQ23-HAP40 (HTT-HAP40) [1] = molecular target: T2, HTTQ23-HAP40 (HTT-HAP40) (Homo sapiens, UniProt P23610+P42858, P42858:INS38QQ); assay: SPR, steady state, […] model; conditions: read-out: apparent KD
T2 construct: full-length HTT (3144 aa, polyQ tract Q23) co-complex with HAP40, ~390 kDa; C-terminal Avi-tag biotinylated (BirA) for SPR; Sf9 baculovirus

HTTQ23-HAP40 (HTT-HAP40) [2] = molecular target: T2, HTTQ23-HAP40 (HTT-HAP40); assay: SPR, […] model
HTTQ23-HAP40 (HTT-HAP40) [3] = molecular target: T2, HTTQ23-HAP40 (HTT-HAP40); assay: SPR, […] model; conditions: pH 7.4, 150 mM NaCl, 4% DMSO

T2 sequence (P42858 with tags, fused parts or gaps INS38QQ): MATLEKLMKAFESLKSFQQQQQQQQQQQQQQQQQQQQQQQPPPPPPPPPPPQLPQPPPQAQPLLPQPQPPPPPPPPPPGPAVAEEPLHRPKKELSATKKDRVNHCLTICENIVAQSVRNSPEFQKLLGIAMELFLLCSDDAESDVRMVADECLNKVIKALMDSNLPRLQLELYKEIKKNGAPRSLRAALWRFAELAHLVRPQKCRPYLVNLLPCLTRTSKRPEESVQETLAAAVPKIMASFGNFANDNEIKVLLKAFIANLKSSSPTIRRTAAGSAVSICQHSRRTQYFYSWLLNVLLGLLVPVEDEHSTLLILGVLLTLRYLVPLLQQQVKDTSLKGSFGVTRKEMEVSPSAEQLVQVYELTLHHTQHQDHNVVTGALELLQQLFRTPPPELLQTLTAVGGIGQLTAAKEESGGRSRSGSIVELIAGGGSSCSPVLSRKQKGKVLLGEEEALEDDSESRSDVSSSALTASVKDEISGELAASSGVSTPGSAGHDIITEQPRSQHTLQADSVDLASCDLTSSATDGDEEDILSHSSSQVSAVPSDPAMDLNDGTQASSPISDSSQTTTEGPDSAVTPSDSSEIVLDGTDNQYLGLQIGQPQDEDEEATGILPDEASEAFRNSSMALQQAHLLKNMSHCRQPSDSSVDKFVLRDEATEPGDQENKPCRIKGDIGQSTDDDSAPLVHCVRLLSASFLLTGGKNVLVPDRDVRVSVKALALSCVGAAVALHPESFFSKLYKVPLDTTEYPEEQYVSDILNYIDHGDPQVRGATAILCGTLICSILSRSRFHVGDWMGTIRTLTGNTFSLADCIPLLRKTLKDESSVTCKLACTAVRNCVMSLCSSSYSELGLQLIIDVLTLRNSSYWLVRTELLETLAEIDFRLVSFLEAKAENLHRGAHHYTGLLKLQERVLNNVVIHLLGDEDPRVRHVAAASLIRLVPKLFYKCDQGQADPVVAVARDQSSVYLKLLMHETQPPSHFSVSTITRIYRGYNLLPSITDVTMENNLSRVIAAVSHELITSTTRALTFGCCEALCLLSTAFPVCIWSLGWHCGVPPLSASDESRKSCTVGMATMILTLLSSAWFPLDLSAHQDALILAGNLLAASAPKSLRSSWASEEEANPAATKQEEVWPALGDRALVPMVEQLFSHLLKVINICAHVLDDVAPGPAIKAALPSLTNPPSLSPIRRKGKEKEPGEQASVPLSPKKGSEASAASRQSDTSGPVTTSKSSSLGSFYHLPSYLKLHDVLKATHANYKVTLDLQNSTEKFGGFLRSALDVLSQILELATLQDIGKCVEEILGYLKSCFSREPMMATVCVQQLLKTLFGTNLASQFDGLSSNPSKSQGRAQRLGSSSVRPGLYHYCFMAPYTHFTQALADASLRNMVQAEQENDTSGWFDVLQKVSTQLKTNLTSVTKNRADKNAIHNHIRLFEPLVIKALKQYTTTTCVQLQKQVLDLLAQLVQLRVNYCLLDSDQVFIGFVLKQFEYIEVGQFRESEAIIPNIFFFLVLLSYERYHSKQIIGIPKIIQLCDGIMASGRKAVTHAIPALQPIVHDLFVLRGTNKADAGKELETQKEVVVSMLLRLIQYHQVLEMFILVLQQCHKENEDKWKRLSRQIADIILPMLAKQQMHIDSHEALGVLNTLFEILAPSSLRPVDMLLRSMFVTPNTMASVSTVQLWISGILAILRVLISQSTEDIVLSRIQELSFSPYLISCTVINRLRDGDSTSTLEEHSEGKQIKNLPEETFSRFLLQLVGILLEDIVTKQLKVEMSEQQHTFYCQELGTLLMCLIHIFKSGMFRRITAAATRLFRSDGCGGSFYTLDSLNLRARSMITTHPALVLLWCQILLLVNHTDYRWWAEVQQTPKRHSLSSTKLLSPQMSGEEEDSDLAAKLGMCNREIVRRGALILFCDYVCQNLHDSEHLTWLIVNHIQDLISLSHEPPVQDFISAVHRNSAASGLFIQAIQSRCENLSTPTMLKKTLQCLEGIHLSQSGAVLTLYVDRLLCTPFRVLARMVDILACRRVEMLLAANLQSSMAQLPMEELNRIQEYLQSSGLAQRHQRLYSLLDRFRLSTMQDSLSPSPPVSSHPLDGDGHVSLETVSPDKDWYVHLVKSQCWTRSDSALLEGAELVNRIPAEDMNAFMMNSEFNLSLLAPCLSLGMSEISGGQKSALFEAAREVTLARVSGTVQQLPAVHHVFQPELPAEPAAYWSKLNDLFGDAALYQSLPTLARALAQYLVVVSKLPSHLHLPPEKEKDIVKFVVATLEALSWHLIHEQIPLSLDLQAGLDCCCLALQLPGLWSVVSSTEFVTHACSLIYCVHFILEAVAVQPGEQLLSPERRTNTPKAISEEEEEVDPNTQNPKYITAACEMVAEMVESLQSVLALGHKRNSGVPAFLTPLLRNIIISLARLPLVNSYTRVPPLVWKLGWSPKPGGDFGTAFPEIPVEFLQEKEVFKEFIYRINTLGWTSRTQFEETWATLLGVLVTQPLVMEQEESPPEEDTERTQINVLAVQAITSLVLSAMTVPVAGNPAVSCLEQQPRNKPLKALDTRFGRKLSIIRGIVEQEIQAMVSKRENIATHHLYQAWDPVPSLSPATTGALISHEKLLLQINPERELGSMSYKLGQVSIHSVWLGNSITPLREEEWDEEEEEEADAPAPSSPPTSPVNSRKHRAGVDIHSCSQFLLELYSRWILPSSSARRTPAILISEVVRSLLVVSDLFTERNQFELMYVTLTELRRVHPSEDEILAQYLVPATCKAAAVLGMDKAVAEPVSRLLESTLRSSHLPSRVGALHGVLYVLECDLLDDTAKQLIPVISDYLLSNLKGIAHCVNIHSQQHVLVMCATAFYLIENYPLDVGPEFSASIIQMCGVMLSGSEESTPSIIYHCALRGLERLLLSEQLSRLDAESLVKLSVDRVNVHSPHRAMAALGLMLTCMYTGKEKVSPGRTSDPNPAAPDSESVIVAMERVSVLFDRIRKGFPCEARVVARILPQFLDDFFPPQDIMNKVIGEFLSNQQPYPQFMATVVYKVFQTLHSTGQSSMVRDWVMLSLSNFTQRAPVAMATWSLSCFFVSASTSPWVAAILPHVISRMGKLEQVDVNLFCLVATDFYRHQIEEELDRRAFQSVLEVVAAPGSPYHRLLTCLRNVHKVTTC
T2 sequence (P23610 whole entry, stated change not applied): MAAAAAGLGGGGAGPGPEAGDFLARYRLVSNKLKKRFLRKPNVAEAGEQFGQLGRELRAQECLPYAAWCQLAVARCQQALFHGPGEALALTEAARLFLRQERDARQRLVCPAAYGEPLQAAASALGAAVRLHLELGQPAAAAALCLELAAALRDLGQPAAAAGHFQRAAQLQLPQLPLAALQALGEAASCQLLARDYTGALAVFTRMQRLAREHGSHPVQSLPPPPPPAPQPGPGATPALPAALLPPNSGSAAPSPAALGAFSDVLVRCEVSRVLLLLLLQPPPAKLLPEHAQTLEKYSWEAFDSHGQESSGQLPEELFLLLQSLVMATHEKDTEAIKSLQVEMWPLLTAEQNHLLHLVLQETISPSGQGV

Kd (HTTQ54-HAP40): 4 ± 1 µM | Kd (HTTQ23-HAP40 (HTT-HAP40) [1]): 5 ± 2 µM
SMILES: Cn1ncc2ccc(CNc3ccccc3C3CC3(F)F)cc21 (racemic) [compound 1, AS-MS Hit 1]

Kd (HTTQ23-HAP40 (HTT-HAP40) [1]): 4 ± 2 µM
SMILES: Cn1ncc2ccc(CNc3ccccc3[C@H]3CC3(F)F)cc21 (single isomer, unassigned; peak 2) [compound 1, Peak 2 of AS-MS Hit 1]

Kd (HTTQ23-HAP40 (HTT-HAP40) [2]): 3.5 ± 1 µM
SMILES: Cn1ncc2ccc(CNc3ccccc3C3CC(F)(F)C3)cc21 [compound 3, 3]

SMILES: Cc1nn(C)c2cc(CNc3ccccc3C3CCC(F)(F)C3)ccc12 (centres unmarked) [compound 21, 21]
KD (HTTQ23-HAP40 (HTT-HAP40) [3]): These modifications were well-tolerated but did not improve affinity
